# Results taken from US12453750B2, “Fixed dose combination of cannabinoids and medical mushrooms for prevention and treatment of cancer, inflammatory or immune-mediated inflammatory diseases” (priority 2019, dated 2025).
# Key:
# EGL-1 cells = assay: Viability assay (XTT) of EGL-1 cells; assay type: cell-based, Human; details: 72 hours; for % viability at the potent concentrations: CBD 40-100 μM, THC 100-375 μM
# Protocol: (§1) • a. PANC-1 cells (Human Pancreatic Cancer cells) (American Type Culture Collection, Rockville, MD, USA). • b. EGL-1 cells (Human extrahepatic cholangio carcinoma) Cell Growth:
# Growth medium for EGL-1 cells: RPMI-1640 medium supplemented with 10% Fetal Bovine Serum (FBS), 2 mM L-Glutamine, and 1% Penicillin-Streptomycin solution (PS).
# Assay medium for EGL-1: Assay medium contained only 1% FBS in DMEM low glucose (1 g/L)
# (§2) • a. Cells were harvest at 80% confluence, counted and re-suspend to final concentration of 75×10^3/ml (PANC-1) or 50×103 (EGL-1) in growth medium. • b. Panc-1 cell suspension was seeded in 96-well microtiter plate at 7500 cells/100 μl/well and EGL-1 cell suspension was seeded in 96-well microtiter plate at 5000 cells/l100p/well. • c. Cells were incubated (37±10 C, 5% CO2) for 18-24 hrs. • d. Growth medium was removed; 80 μL assay medium and 20 μL Vehicle, Test Item, and Controls were added. […] The content of all wells was mixed by pipetting up and down three times. • f. Plates were incubated for 72±2 h (37±1° C., 5% CO2). • g. The medium on all plates was replaced with 100 μl culture medium. XTT Assay • a. XTT reaction solution was prepared. • b. 50 μl of the XTT reaction solution was added into each well. • c. Plates were incubated in a humidified atmosphere (e.g. 37° C., 5% CO2). • d. The plates were shaken gently to evenly distribute the dye in the wells. • e. The absorbance of the samples was measure against a background control as a blank with a spectrophotometer (ELISA reader) at a wavelength of 450 nm. • f. In order to measure reference absorbance (to measure non-specific readings), a wavelength of 620 nm was used to subtract from the 450 nm measurement. • g. The idle absorbance of the cells was 0.5-1.5 in all wells.
# [1] = system: TNFα secretion from RAW cells; assay: TNFα secretion, Multiplex analysis of medium of LPS-stimulated RAW cells; assay type: cell-based, Murine; details: CBD (15 μM), THC (20 μM)
# Protocol: (§3) • a. Cells were harvested at 80% confluence, counted and re-suspend to final concentration of 1×10^6/ml in growth medium. • b. […] Cells were incubated (37±10 C, 5% CO2) for 18-24 hrs. • d. Growth medium was removed; […] medium and 4 μL Vehicle, Test Item, and Controls were added. • e. The content of all wells was mixed by pipetting up and down three times. • f. Plates were incubated for 2 h (37±1° C., 5% CO2). • g. LPS (10 μl, final concentration of 100 ng/ml LPS) was added to all wells. • h. The content of all wells was mixed by pipetting up and down three times. • i. Plates were incubated for 24±2 h (37±1° C., 5% CO2). • j. Medium was collected from the 96-microtiter plate: 50 μl for NO secretion assay and the rest was stored in −20° C. for cytokine secretion assay.
# (§4) Cytokine Secretion • a. Reishi, Cordyceps M, Agaricus blazei, and Cordyceps Cs-4 were incubated with […] at 0.08-2 mg/ml for 24 hours. • b. Medium from cells was collected for Multiplex analysis (CCL3/MIP1α, IL-6, IL-1β, TNFα, IL-10 and IL-6) in duplicates. • c.
# (§5) Cytokine Secretion • a. CBD (15 μM) and THC (20 μM) were incubated with […]. • b. Medium from cells was collected for Multiplex analysis (CCL3/MIP1α, IL-6, IL-1β, TNFα, IL-10 and IL-6) in duplicates. • c. […] IL-6 secretion: • i. […] TNFα secretion: • i.
# (§6) Cytokine Secretion • a. […]
# [2] = system: NO secretion from RAW cells; assay: Nitric Oxide (NO) test (Griess test) on supernatants of LPS-stimulated RAW cells; assay type: cell-based, Murine; details: for concentration effective in inhibiting NO secretion without affecting cells' viability / Cannabinoid NO: RAW cells 24 h; for % inhibition of NO secretion: vs vehicle
# Protocol: • a. ⅔ of total final volume of warm water for injection (42° C.) was added to the dry mushroom powder. • b. The suspension was vortexed and centrifuged (4100 rpm, RT, 5 min). • c. The supernatant containing the water-soluble fraction was separated into a clean tube. • d. 5% of total final volume of EtOH was added to the pellet and vortexed to extract ethanol-soluble fractions. Water was added q.s. ad. final volume. • e. The suspension was vortexed and centrifuged. The resulting supernatant was combined and centrifuged again to remove debris, yielding a final concentration of 50 mg/ml. • f. The resulting solution was passed through a cell strainer (40-70 micron). • g. Two additional stocks were prepared in vehicle (5% EtOH in WFI): 10 mg/ml and 2 mg/ml. • h. All Test items/Vehicle were added to the cells at 4 μL into 96 μL medium, yielding final working concentrations of: 2 mg/ml, 0.4 mg/ml, and 0.08 (in 0.2% EtOH, 4% WFI). […] Cell Medium Formulations:
# as §3
# Cell Proliferation and Viability (XTT Assay) • a. XTT reaction solution was prepared. • b. 50 μl of the XTT reaction solution was added into each well. • c. Plates were incubated in a humidified atmosphere (e.g. 37° C., 5% CO2). • d. The plates were shaken gently to evenly distribute the dye in the wells. • e. The absorbance of the samples was measure against a background control as a blank with a spectrophotometer (ELISA reader) at a wavelength of 450 nm. • f. In order to measure reference absorbance (to measure non-specific readings), a wavelength of 620 nm was used to subtract from the 450 nm measurement. • g. […] Nitric Oxide (NO) Test (Griess Test) • a. The Sulfanilamide Solution and NED Solution were allowed to equilibrate to room temperature (15-30 minutes). • b. 1 ml of a 100 μM nitrite solution was prepared by diluting the provided 0.1M Nitrite Standard 1:1,000 in culture medium. • c. 2 columns (16 wells) were designate in the non-binding 96-well plate for the Nitrite Standard reference curve. 50 μl of assay medium were dispensed into the wells in rows B-H (FIG. 1). • d. 100 μl of the 100 μM nitrite solution was added to the remaining 2 wells in row A. serial twofold dilutions (50 μl/well) were performed immediately in duplicate down the plate to generate the Nitrite Standard reference curve (100, 50, 25, 12.5, 6.25, 3.13 and 1.56 μM), discarding 50 μl from the 1.56 μM set of wells • e. 50 μl of the Sulfanilamide Solution were dispensed to all experimental samples and wells containing the dilution series for the Nitrite Standard reference curve. • f. The plate was incubated 5-10 minutes at room temperature, protected from light. • g. 50 μl of the NED Solution was dispensed to all wells. • h. The plate was incubated 5-10 minutes at room temperature, protected from light. • i. Absorbance was measured within 30 minutes in a plate reader with a filter between 520 nm and 550 nm. • j.
# PANC-1 cells = assay: Viability assay (XTT) of PANC-1 cells; assay type: cell-based, Human; details: 72 hours; for % viability at the potent concentrations: CBD 40-100 μM, THC 100-375 μM, no dose response
# Protocol: as §1
# Growth medium for PANC-1/EGL-1 cells: Dulbecco's Modified Eagle Medium (DMEM) high glucose supplemented with 10% Fetal Bovine Serum (FBS), 2 mM L-Glutamine, and 1% Penicillin-Streptomycin solution (PS).
# Assay medium for PANC-1: Assay medium contained only 1% FBS.
# as §2
# [3] = system: IL-6 secretion from RAW cells; assay: IL-6 secretion, Multiplex analysis of medium of LPS-stimulated RAW cells; assay type: cell-based, Murine; details: CBD (15 μM)
# Protocol: as §3, §4, §5, §6
# cancer cells = details: D9-THC (4-10 µM); cited from earlier work
# [4] = system: NCl-H292 (lung cancer) cells; details: D9-THC at 100-300 nM; cited from earlier work
# [5] = system: U373-MG (glioblastoma) cells; details: D9-THC at 100-300 nM; cited from earlier work
# [6] = Mus musculus, read-out: % inhibition of NO secretion
Structure (SMILES),concentration at which potent (viability) (EGL-1 cells) [µM],% viability at the potent concentrations (EGL-1 cells),effect on TNFα secretion (in words) [1],NO ([2]; CBD 15 μM alone) [µM],"inhibition at 15 µM [2, 6] [%]",concentration effective in inhibiting NO secretion without affecting cells' viability [2] [µM],Cannabinoid NO ([2]; cannabinoid 15 μM) [µM],% inhibition of NO secretion ([2]; cannabinoid 15 μM) [%],Cannabinoid NO ([2]; cannabinoid 20 μM) [µM],% inhibition of NO secretion ([2]; cannabinoid 20 μM) [%],concentration at which potent (viability) (PANC-1 cells) [µM],% viability at the potent concentrations (PANC-1 cells) [%],effect on IL-6 secretion (in words) [3],number of apoptotic cells (cancer cells),increase in the proliferation rate [4] [fold],"inhibition at 20 µM [2, 6] [%]",NO ([2]; THC 20 μM alone) [µM],increase in the proliferation rate [5] [fold]
"C=C(C)[C@@H]1CCC(C)=C[C@H]1c1c(O)cc(CCCCC)cc1O [CBD, cannabidiol]",40 to 100,15-30%,did not affect TNFα secretion,6.67,40.2,15 to 20,11.8,38.6,5.07,73.6,40 to 100,35,did not affect IL-6 secretion,,,,,
"CCCCCc1cc(O)c2c(c1)OC(C)(C)[C@@H]1CCC(C)=C[C@@H]21 [THC, Δ^9-tetrahydrocannabinol]",100 to 375,15%,did not affect TNFα secretion,,,20,,,8.77,54.4,100 to 375,35,,30-80%,1.2,66.7,3.72,2
